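Grown in 96-well plates, cells were treated for 48 hours with each compound at five concentrations. Insufficient inhibition: endpoint recorded as highest concentration tested. Abbreviation: GI50, concentration required for 50% inhibition of growth. TGI is the concentration that stops growth completely.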
Experiments:
Assay in all cases: growth of human tumour cells (NCI), 48 h
HCT-116 colon = tested on: HCT-116 colon
OVCAR-4 ovarian = tested on: OVCAR-4 ovarian
NCI-H460 lung = tested on: NCI-H460 lung
SF-295 CNS = tested on: SF-295 CNS
NCI-H226 lung = tested on: NCI-H226 lung
NCI-H522 lung = tested on: NCI-H522 lung
BT-549 breast = tested on: BT-549 breast
NCI-H23 lung = tested on: NCI-H23 lung
HS 578T breast = tested on: HS 578T breast
OVCAR-3 ovarian = tested on: OVCAR-3 ovarian

Work on COc1cc(/C=C/c2cc(/C=C/c3ccc(O)c(OC)c3)n(C(=O)c3ccccc3Br)n2)ccc1O yielded a GI50 (HCT-116 colon) of 3.06 µM, a TGI (HCT-116 colon) greater than 100 µM and a GI50 (OVCAR-4 ovarian) of 3.64 µM. For the same compound, the TGI (OVCAR-4 ovarian) was 22.8 µM, the GI50 (NCI-H460 lung) was 2.99 µM and the TGI (NCI-H460 lung) was greater than 100 µM. The GI50 (SF-295 CNS) was 3.12 µM, the TGI (SF-295 CNS) was 35.1 µM and the GI50 (NCI-H226 lung) was 3.29 µM. It also gave a TGI (NCI-H226 lung) of 56.5 µM, a GI50 (NCI-H522 lung) of 1.38 µM and a TGI (NCI-H522 lung) of 6.32 µM. For the same compound, the GI50 (BT-549 breast) was 2.12 µM, the TGI (BT-549 breast) was 7.75 µM and the GI50 (NCI-H23 lung) was 2.68 µM. For the same compound, the TGI (NCI-H23 lung) was 16.9 µM, the GI50 (HS 578T breast) was 2.75 µM and the TGI (HS 578T breast) was 48.6 µM.
CCc1ccc(Nc2cc(C)c3ccc(O)cc3n2)cc1 gave a GI50 (HCT-116 colon) of 4.57 µM, a TGI (HCT-116 colon) of 17.4 µM and a GI50 (OVCAR-4 ovarian) of 12.4 µM. For the same compound, the TGI (OVCAR-4 ovarian) was 30.9 µM, the GI50 (OVCAR-3 ovarian) was 11.7 µM and the TGI (OVCAR-3 ovarian) was 27.8 µM. The GI50 (NCI-H460 lung) was 4.92 µM, the TGI (NCI-H460 lung) was 22 µM and the GI50 (SF-295 CNS) was 5.06 µM. For the same compound, the TGI (SF-295 CNS) was 20.3 µM, the GI50 (NCI-H226 lung) was 19.8 µM and the TGI (NCI-H226 lung) was 54.3 µM. It also gave a GI50 (BT-549 breast) of 4.48 µM, a TGI (BT-549 breast) of 16.3 µM and a GI50 (NCI-H23 lung) of 3.34 µM. It also gave a TGI (NCI-H23 lung) of 15.6 µM, a GI50 (HS 578T breast) of 10.3 µM and a TGI (HS 578T breast) of 31.8 µM.
Cc1cc(Cl)nc(N(CCNc2ccnc3cc(Cl)ccc23)Cc2ccco2)n1 gave a GI50 (HCT-116 colon) of 1.58 µM, a TGI (HCT-116 colon) of 3.2 µM and a GI50 (OVCAR-4 ovarian) of 1.67 µM. The TGI (OVCAR-4 ovarian) was 3.38 µM, the GI50 (OVCAR-3 ovarian) was 1.75 µM and the TGI (OVCAR-3 ovarian) was 3.32 µM. For the same compound, the GI50 (NCI-H460 lung) was 1.84 µM, the TGI (NCI-H460 lung) was 3.94 µM and the GI50 (SF-295 CNS) was 1.5 µM. It also gave a TGI (SF-295 CNS) of 3.01 µM, a GI50 (NCI-H522 lung) of 1.76 µM and a TGI (NCI-H522 lung) of 3.61 µM. For the same compound, the GI50 (BT-549 breast) was 1.66 µM, the TGI (BT-549 breast) was 3.3 µM and the GI50 (NCI-H23 lung) was 2.57 µM. It also gave a TGI (NCI-H23 lung) of 9.65 µM, a GI50 (HS 578T breast) of 2.27 µM and a TGI (HS 578T breast) of 6.32 µM.
Compound COc1ccc(Nc2cnc3cc(N)cc(N)c3n2)cc1 has a GI50 (HCT-116 colon) of 23.8 µM, a TGI (HCT-116 colon) of 54.1 µM and a GI50 (OVCAR-4 ovarian) of 21.4 µM. It also gave a TGI (OVCAR-4 ovarian) of 48.5 µM, a GI50 (OVCAR-3 ovarian) of 11.4 µM and a TGI (OVCAR-3 ovarian) of 27.3 µM. It also gave a GI50 (NCI-H460 lung) of 21.9 µM, a TGI (NCI-H460 lung) of 53.5 µM and a GI50 (SF-295 CNS) of 22.3 µM. The TGI (SF-295 CNS) was 48.7 µM, the GI50 (NCI-H226 lung) was 17.2 µM and the TGI (NCI-H226 lung) was 45.8 µM. For the same compound, the GI50 (NCI-H522 lung) was 16.6 µM, the TGI (NCI-H522 lung) was 43.6 µM and the GI50 (NCI-H23 lung) was 2.02 µM. It also gave a TGI (NCI-H23 lung) of 7.65 µM, a GI50 (HS 578T breast) of 21.9 µM and a TGI (HS 578T breast) of 63.3 µM.
Compound COc1ccccc1Oc1nccc(-c2c(-c3ccc(F)cc3)ncn2C2CCNCC2)n1 has a GI50 (HCT-116 colon) of 19.6 µM, a TGI (HCT-116 colon) greater than 25 µM and a GI50 (OVCAR-4 ovarian) greater than 25 µM. For the same compound, the TGI (OVCAR-4 ovarian) was greater than 25 µM, the GI50 (OVCAR-3 ovarian) was greater than 25 µM and the TGI (OVCAR-3 ovarian) was greater than 25 µM. For the same compound, the GI50 (NCI-H460 lung) was greater than 25 µM, the TGI (NCI-H460 lung) was greater than 25 µM and the GI50 (SF-295 CNS) was 17.5 µM. For the same compound, the TGI (SF-295 CNS) was greater than 25 µM, the GI50 (NCI-H522 lung) was greater than 25 µM and the TGI (NCI-H522 lung) was greater than 25 µM. It also gave a GI50 (BT-549 breast) greater than 23.6 µM, a TGI (BT-549 breast) greater than 25 µM and a GI50 (HS 578T breast) greater than 6.75 µM. It also gave a TGI (HS 578T breast) greater than 23 µM.
In the case of COc1cc(OC)c(OC)cc1/C=C/c1nc2ccccc2s1, the TGI (HCT-116 colon) is reported as greater than 100 µM, the TGI (OVCAR-3 ovarian) is reported as greater than 100 µM and the TGI (NCI-H460 lung) is reported as greater than 100 µM. It also gave a TGI (SF-295 CNS) greater than 100 µM, a TGI (NCI-H226 lung) greater than 100 µM and a TGI (NCI-H522 lung) greater than 100 µM. The TGI (NCI-H23 lung) was greater than 100 µM and the TGI (HS 578T breast) was greater than 100 µM.
In the case of C(=Nc1nc(SCc2ccccc2)nc2[nH]ncc12)c1cccs1, the GI50 (OVCAR-4 ovarian) is reported as greater than 100 µM, the TGI (OVCAR-4 ovarian) is reported as greater than 100 µM and the GI50 (OVCAR-3 ovarian) is reported as greater than 100 µM. For the same compound, the TGI (OVCAR-3 ovarian) was greater than 100 µM, the GI50 (NCI-H460 lung) was 33.2 µM and the TGI (NCI-H460 lung) was greater than 100 µM. For the same compound, the GI50 (SF-295 CNS) was greater than 100 µM, the TGI (SF-295 CNS) was greater than 100 µM and the GI50 (NCI-H226 lung) was 45.7 µM. The TGI (NCI-H226 lung) was greater than 100 µM, the GI50 (NCI-H522 lung) was 59.2 µM and the TGI (NCI-H522 lung) was greater than 100 µM. The GI50 (BT-549 breast) was 41 µM, the TGI (BT-549 breast) was greater than 100 µM and the GI50 (NCI-H23 lung) was 66.4 µM. The TGI (NCI-H23 lung) was greater than 100 µM.
For CC(=O)NC1C(O[C@H]2C[C@H]3[C@@H]4CC=C5C[C@@H](O)CC[C@]5(C)[C@H]4CC[C@]3(C)[C@H]2[C@H](C)C(=O)CCC(C)C)OCC(O)C1O (stereo partly drawn), the GI50 (HCT-116 colon) was 1.39 µM, the TGI (HCT-116 colon) was 5.82 µM and the GI50 (OVCAR-4 ovarian) was 5.31 µM. For the same compound, the TGI (OVCAR-4 ovarian) was 41 µM, the GI50 (OVCAR-3 ovarian) was 5.2 µM and the TGI (OVCAR-3 ovarian) was 34 µM. For the same compound, the GI50 (NCI-H460 lung) was 1.71 µM, the TGI (NCI-H460 lung) was 6.1 µM and the GI50 (SF-295 CNS) was 0.5 µM. It also gave a TGI (SF-295 CNS) of 1.23 µM, a GI50 (NCI-H522 lung) of 8.72 µM and a TGI (NCI-H522 lung) of 18.8 µM. For the same compound, the GI50 (BT-549 breast) was 0.776 µM, the TGI (BT-549 breast) was 6.96 µM and the GI50 (NCI-H23 lung) was 4.59 µM. For the same compound, the TGI (NCI-H23 lung) was 18.5 µM, the GI50 (HS 578T breast) was 0.88 µM and the TGI (HS 578T breast) was 4.09 µM.
With S=C1SCN(Cc2ccccc2)CN1Cc1ccco1 the GI50 (HCT-116 colon) was 1.47 µM, the TGI (HCT-116 colon) was 12.3 µM and the GI50 (OVCAR-3 ovarian) was 3.98 µM. It also gave a TGI (OVCAR-3 ovarian) of 15 µM, a GI50 (NCI-H460 lung) of 5.25 µM and a TGI (NCI-H460 lung) of 22.3 µM. The GI50 (SF-295 CNS) was greater than 100 µM, the TGI (SF-295 CNS) was greater than 100 µM and the GI50 (NCI-H522 lung) was 2.59 µM. It also gave a TGI (NCI-H522 lung) of 9.92 µM, a GI50 (BT-549 breast) of 2.91 µM and a TGI (BT-549 breast) of 12.3 µM. For the same compound, the GI50 (NCI-H23 lung) was 5.21 µM, the TGI (NCI-H23 lung) was 34.9 µM and the GI50 (HS 578T breast) was 19.7 µM. The TGI (HS 578T breast) was 81.5 µM.
Work on C=C(CN1CCc2[nH]c3ccc(F)cc3c2C1)c1ccc(C(=O)Nc2ccccc2N)cc1 yielded a GI50 (HCT-116 colon) of 0.367 µM, a TGI (HCT-116 colon) of 5.04 µM and a GI50 (OVCAR-3 ovarian) of 2.08 µM. The TGI (OVCAR-3 ovarian) was 6.84 µM, the GI50 (NCI-H460 lung) was 3.98 µM and the TGI (NCI-H460 lung) was 17.2 µM. For the same compound, the GI50 (SF-295 CNS) was 3.31 µM, the TGI (SF-295 CNS) was 11.8 µM and the GI50 (NCI-H226 lung) was 2.47 µM. It also gave a TGI (NCI-H226 lung) of 7.32 µM, a GI50 (NCI-H522 lung) of 0.316 µM and a TGI (NCI-H522 lung) of 1.35 µM. The GI50 (BT-549 breast) was 1.5 µM, the TGI (BT-549 breast) was 5.67 µM and the GI50 (NCI-H23 lung) was 2.22 µM. The TGI (NCI-H23 lung) was 12.6 µM, the GI50 (HS 578T breast) was 1.07 µM and the TGI (HS 578T breast) was 14.1 µM.
In the case of CC(=O)OCC(=O)[C@@]1(O)CC[C@H]2[C@@H]3C[C@H](C)C4=CC(=O)C=C[C@]4(C)[C@@]3(F)[C@@H](O)C[C@@]21C, the TGI (HCT-116 colon) is reported as greater than 100 µM, the TGI (OVCAR-4 ovarian) is reported as greater than 100 µM and the TGI (OVCAR-3 ovarian) is reported as greater than 100 µM. The TGI (NCI-H460 lung) was greater than 100 µM, the TGI (SF-295 CNS) was greater than 100 µM and the TGI (NCI-H226 lung) was greater than 100 µM. It also gave a TGI (NCI-H522 lung) greater than 100 µM and a TGI (NCI-H23 lung) greater than 100 µM.
CCc1cccc(CC)c1NC(=O)/C(Cl)=C(/Cl)C(=O)O was tested, and the TGI (HCT-116 colon) was 50.3 µM, the TGI (OVCAR-4 ovarian) was 31.1 µM and the TGI (OVCAR-3 ovarian) was 48.1 µM. For the same compound, the TGI (NCI-H460 lung) was greater than 100 µM, the TGI (SF-295 CNS) was greater than 100 µM and the TGI (NCI-H226 lung) was greater than 100 µM. The TGI (NCI-H522 lung) was 29.1 µM and the TGI (NCI-H23 lung) was 66.5 µM.
COc1cc(/C=C/c2csnn2)cc(OC)c1OC was tested, and the TGI (HCT-116 colon) was greater than 100 µM, the TGI (OVCAR-4 ovarian) was greater than 100 µM and the TGI (OVCAR-3 ovarian) was greater than 100 µM. For the same compound, the TGI (NCI-H460 lung) was greater than 100 µM, the TGI (SF-295 CNS) was greater than 100 µM and the TGI (NCI-H226 lung) was greater than 100 µM. The TGI (NCI-H522 lung) was greater than 100 µM and the TGI (NCI-H23 lung) was greater than 100 µM.

Reference: PubChem BioAssay (NCI)
